Values of other authors as cited in PMC7518156 (PeerJ, 2020).
Where two headings read alike, the source gives them in different places.

Conditions: ref Scheffler et al., 2011, cited from earlier work; for half-life (t1/2): Lu et al., 2006
[1] = oral administration, cancer patients
[2] = oral administration, healthy subjects

Row | SMILES | half-life (t1/2) (cancer patients) | half-life (t1/2) (healthy patients) | F [1] [%] | Tmax [1] | mean bioavailability (F) [2] [%] | time to reach maximum concentration (tmax) [2] [h]
1 | C#Cc1cccc(Nc2ncnc3cc(OCCOC)c(OCCOC)cc23)c1 [ERL, Erlotinib] | up to 40.9 h | about 24.4 h | 76 | 3 h | 59 | 1.4
2 | COc1cc2ncnc(Nc3ccc(F)c(Cl)c3)c2cc1OCCCN1CCOCC1 [GEF, Gefitinib] | ~48 h | about 41 h | – | about 7 h | – | 3
